# Patent US20180200315A1, “CANNABINOID AND CAFFEINE EMULSIFICATIONS” (priority 2016, published 2018)
# Assay: Emulsifier experiments with coconut oils and water (Example 2)
# Assay type: physicochemical
# Conditions: tested as emulsifying agents; solid and liquid (MCT) coconut oils
# Protocol: Several experiments were run using several different emulsifiers and combinations of different coconut oils: solid and liquid (MCT). (Note: liquid MCT is coconut oil that has medium chain triglyceride). Guar gum, lecithin, and cyclodextrin were tested as emulsifying agents and provided good results.
substance,measurement,value
cyclodextrin,emulsification of the oil and water,good results
